In US20250304644A1, “PEPTIDES TRIPLE AGONISTS OF GIP, GLP-1 AND GLP-2” (BAINAN BIOTECH APS, priority 2021, published 2025):
Where a SMILES comes first, the peptide text is derived from it. [ ]: non-standard residue; d: D form. The star is where a group is joined. Decanoyl = CCCCCCCCCC(=O)*; Aib = CC(C)(N)C(=O)O

Key:
Assay type in all cases: cell-based
[1] = biological target: T1, human GIPR (Homo sapiens, UniProt P48546); assay: cAMP assay (HitHunter) in transiently transfected COS-7 cells expressing human GIPR; settings: for Emax: COS-7, normalized to highest concentration of the endogenous ligand, read-out: Efficacy GIPR (Emax); for EC50: cAMP, COS-7 cells, human GIPR
T1 construct: host or cells: COS-7
T1 sequence (P48546 22-466): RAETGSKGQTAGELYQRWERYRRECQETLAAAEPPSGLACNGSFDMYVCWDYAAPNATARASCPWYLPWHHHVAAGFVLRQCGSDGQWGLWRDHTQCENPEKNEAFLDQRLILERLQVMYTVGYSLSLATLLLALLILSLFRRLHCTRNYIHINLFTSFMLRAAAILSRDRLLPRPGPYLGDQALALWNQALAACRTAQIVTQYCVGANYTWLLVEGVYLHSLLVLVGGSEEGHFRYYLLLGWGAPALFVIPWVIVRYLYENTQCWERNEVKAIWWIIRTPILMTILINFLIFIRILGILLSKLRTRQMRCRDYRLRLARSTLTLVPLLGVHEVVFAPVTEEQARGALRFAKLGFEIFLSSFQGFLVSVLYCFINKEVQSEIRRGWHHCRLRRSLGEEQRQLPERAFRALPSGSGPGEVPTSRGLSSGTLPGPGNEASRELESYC
Description: (§1) The next day the assay was initiated by washing with HEPES buffered saline (HBS) and followed by an incubation step with assay buffer (HBS added 1 mM isobutyl-1-methylxanthine (IBMX)) for 30 min at 37° C. The ligands were then added and incubated for an additional 30 min at 37° C. After ligand incubation, the HitHunter® CAMP assay (Eurofins DiscoverX, Fremont, […] USA) was carried out according to the manufacturer's instructions. […] The potencies (EC50 values) were determined by nonlinear regression using GraphPad Prism 9 (San Diego, California, USA). Sigmoid curves were fitted logistically. The efficacies (Emax values) were determined by normalization to the highest concentration applied of the endogenous ligand for each receptor.

[2] = biological target: T2, human GLP-2R (Homo sapiens, UniProt O95838); assay: cAMP assay (HitHunter) in transiently transfected COS-7 cells expressing human GLP-2R; settings: for Emax: COS-7, normalized to highest concentration of the endogenous ligand, read-out: Efficacy GLP-2R (Emax)
T2 construct: host or cells: COS-7
T2 sequence (O95838 1-553): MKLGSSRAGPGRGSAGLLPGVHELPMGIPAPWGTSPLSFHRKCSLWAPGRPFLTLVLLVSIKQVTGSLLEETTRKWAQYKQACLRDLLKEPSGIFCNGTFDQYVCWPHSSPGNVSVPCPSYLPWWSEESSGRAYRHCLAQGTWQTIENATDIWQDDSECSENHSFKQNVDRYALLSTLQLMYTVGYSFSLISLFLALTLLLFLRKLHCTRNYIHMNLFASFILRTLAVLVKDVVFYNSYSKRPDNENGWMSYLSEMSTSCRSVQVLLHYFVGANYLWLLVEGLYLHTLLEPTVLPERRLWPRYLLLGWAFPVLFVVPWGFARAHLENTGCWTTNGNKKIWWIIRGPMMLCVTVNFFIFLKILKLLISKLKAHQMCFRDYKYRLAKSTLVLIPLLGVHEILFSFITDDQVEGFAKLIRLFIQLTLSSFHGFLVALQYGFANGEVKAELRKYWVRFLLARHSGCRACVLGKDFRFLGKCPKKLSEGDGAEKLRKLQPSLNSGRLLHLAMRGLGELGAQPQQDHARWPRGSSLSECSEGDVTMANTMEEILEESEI
Description: as §1

[3] = biological target: T3, human GLP-1R (Homo sapiens, UniProt P43220); assay: cAMP assay (HitHunter) in transiently transfected COS-7 cells expressing human GLP-1R; settings: for Emax: COS-7, normalized to highest concentration of the endogenous ligand, read-out: Efficacy GLP-1R (Emax); for EC50: cAMP, COS-7 cells, human GLP-1R, read-out: EC50 (nM) GLP-1R
T3 construct: host or cells: COS-7
Description: as §1

T3 sequence (P43220 24-463): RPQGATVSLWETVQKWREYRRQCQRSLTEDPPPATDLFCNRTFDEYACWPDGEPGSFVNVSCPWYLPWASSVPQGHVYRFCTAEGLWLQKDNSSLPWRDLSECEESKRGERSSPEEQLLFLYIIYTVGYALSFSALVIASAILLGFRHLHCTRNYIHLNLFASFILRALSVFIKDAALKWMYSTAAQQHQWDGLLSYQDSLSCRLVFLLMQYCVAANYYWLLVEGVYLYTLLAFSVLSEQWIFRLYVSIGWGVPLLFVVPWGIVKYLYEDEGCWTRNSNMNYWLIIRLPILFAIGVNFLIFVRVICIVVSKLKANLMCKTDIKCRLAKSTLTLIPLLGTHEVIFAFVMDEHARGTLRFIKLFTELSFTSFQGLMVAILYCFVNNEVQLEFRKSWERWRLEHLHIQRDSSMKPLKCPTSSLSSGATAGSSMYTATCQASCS

Emax [1]	EC50 [1]	Emax [2]	Emax [3]	EC50 [3]	EC50 ([2]; cAMP, COS-7 cells, human GLP-2R, read-out: EC50 (nM) GLP-2R)	SMILES
102%	1.12 nM	92%	82%	25.1 nM		CCCCCCCCCC(=O)NCCCC[C@H](NC(=O)[C@@H](NC(=O)[C@@H](NC(=O)[C@H](CCCCN)NC(=O)[C@@H](NC(=O)[C@H](CCC(N)=O)NC(=O)[C@@H](NC(=O)[C@H](CC(C)C)NC(=O)[C@H](Cc1c[nH]c2ccccc12)NC(=O)[C@H](CC(N)=O)NC(=O)[C@@H](NC(=O)[C@H](Cc1ccccc1)NC(=O)[C@H](CC(=O)O)NC(=O)[C@H](CCCNC(=N)N)NC(=O)[C@H](C)NC(=O)[C@H](C)NC(=O)[C@H](CC(C)C)NC(=O)[C@H](CC(C)C)NC(=O)[C@H](CC(=O)O)NC(=O)[C@H](CC(C)C)NC(=O)[C@@H](NC(=O)[C@@H](NC(=O)[C@H](CO)NC(=O)[C@H](Cc1ccc(O)cc1)NC(=O)[C@H](CC(=O)O)NC(=O)[C@H](CO)NC(=O)[C@@H](NC(=O)[C@H](Cc1ccccc1)NC(=O)[C@@H](NC(=O)CNC(=O)[C@H](CC(=O)O)NC(=O)C(C)(C)NC(=O)[C@@H](N)Cc1c[nH]cn1)[C@@H](C)O)[C@@H](C)CC)[C@@H](C)O)[C@@H](C)CC)[C@@H](C)CC)[C@@H](C)CC)[C@@H](C)O)[C@@H](C)CC)[C@@H](C)O)C(N)=O [Compound 4] (H-H[Aib]DGTFISDYSTILDLLAARDFINWLIQTKITK(Decanoyl)-NH2)
111%	0.158 nM	110%	105%	1.78 nM	2 nM	CCCCCCCCCC(=O)NCCCC[C@H](NC(=O)[C@@H](NC(=O)[C@@H](NC(=O)[C@H](CCCCN)NC(=O)[C@@H](NC(=O)[C@H](CCC(N)=O)NC(=O)[C@@H](NC(=O)[C@H](CC(C)C)NC(=O)[C@H](Cc1c[nH]c2ccccc12)NC(=O)[C@H](CC(N)=O)NC(=O)[C@@H](NC(=O)[C@H](Cc1ccccc1)NC(=O)[C@H](CC(=O)O)NC(=O)[C@H](CCCNC(=N)N)NC(=O)[C@H](C)NC(=O)[C@H](C)NC(=O)[C@H](CC(C)C)NC(=O)[C@H](C)NC(=O)[C@H](CC(=O)O)NC(=O)[C@H](CC(C)C)NC(=O)[C@@H](NC(=O)[C@@H](NC(=O)[C@H](CO)NC(=O)[C@H](Cc1ccc(O)cc1)NC(=O)[C@H](CC(=O)O)NC(=O)[C@H](CO)NC(=O)[C@@H](NC(=O)[C@H](Cc1ccccc1)NC(=O)[C@@H](NC(=O)CNC(=O)[C@H](CC(=O)O)NC(=O)C(C)(C)NC(=O)[C@@H](N)Cc1c[nH]cn1)[C@@H](C)O)[C@@H](C)CC)[C@@H](C)O)[C@@H](C)CC)[C@@H](C)CC)[C@@H](C)CC)[C@@H](C)O)[C@@H](C)CC)[C@@H](C)O)C(N)=O [Compound 5] (H-H[Aib]DGTFISDYSTILDALAARDFINWLIQTKITK(Decanoyl)-NH2)
99%	1 nM	93%	59%			CCCCCCCCCC(=O)NCCCC[C@H](NC(=O)[C@@H](NC(=O)[C@@H](NC(=O)[C@H](CCCCN)NC(=O)[C@@H](NC(=O)[C@H](CCC(N)=O)NC(=O)[C@@H](NC(=O)[C@H](CC(C)C)NC(=O)[C@H](Cc1c[nH]c2ccccc12)NC(=O)[C@H](CC(N)=O)NC(=O)[C@@H](NC(=O)[C@H](Cc1ccccc1)NC(=O)[C@H](CC(=O)O)NC(=O)[C@H](CCCNC(=N)N)NC(=O)[C@H](C)NC(=O)[C@H](C)NC(=O)[C@H](CC(C)C)NC(=O)[C@H](CC(N)=O)NC(=O)[C@H](CC(=O)O)NC(=O)[C@H](CC(C)C)NC(=O)[C@@H](NC(=O)[C@@H](NC(=O)[C@H](CO)NC(=O)[C@H](Cc1ccc(O)cc1)NC(=O)[C@H](CC(=O)O)NC(=O)[C@H](CO)NC(=O)[C@@H](NC(=O)[C@H](Cc1ccccc1)NC(=O)[C@@H](NC(=O)CNC(=O)[C@H](CC(=O)O)NC(=O)C(C)(C)NC(=O)[C@@H](N)Cc1ccc(O)cc1)[C@@H](C)O)[C@@H](C)CC)[C@@H](C)O)[C@@H](C)CC)[C@@H](C)CC)[C@@H](C)CC)[C@@H](C)O)[C@@H](C)CC)[C@@H](C)O)C(N)=O [Compound 16] (H-Y[Aib]DGTFISDYSTILDNLAARDFINWLIQTKITK(Decanoyl)-NH2; N-terminus assumed)
